From ChEMBL document CHEMBL1122915, “Synthesis and biological activity of carboxylic acid replacement analogues of the potent angiotensin converting enzyme inhibitor 5(S)-benzamido-4-oxo-6-phenylhexanoyl-L-proline” (J Med Chem, 1985) come the findings set out here.

The structures appear in SMILES notation.

For the assay, the target named is T1, Angiotensin-converting enzyme (Rattus norvegicus, UniProt P47820).
T1 sequence (P47820 whole entry): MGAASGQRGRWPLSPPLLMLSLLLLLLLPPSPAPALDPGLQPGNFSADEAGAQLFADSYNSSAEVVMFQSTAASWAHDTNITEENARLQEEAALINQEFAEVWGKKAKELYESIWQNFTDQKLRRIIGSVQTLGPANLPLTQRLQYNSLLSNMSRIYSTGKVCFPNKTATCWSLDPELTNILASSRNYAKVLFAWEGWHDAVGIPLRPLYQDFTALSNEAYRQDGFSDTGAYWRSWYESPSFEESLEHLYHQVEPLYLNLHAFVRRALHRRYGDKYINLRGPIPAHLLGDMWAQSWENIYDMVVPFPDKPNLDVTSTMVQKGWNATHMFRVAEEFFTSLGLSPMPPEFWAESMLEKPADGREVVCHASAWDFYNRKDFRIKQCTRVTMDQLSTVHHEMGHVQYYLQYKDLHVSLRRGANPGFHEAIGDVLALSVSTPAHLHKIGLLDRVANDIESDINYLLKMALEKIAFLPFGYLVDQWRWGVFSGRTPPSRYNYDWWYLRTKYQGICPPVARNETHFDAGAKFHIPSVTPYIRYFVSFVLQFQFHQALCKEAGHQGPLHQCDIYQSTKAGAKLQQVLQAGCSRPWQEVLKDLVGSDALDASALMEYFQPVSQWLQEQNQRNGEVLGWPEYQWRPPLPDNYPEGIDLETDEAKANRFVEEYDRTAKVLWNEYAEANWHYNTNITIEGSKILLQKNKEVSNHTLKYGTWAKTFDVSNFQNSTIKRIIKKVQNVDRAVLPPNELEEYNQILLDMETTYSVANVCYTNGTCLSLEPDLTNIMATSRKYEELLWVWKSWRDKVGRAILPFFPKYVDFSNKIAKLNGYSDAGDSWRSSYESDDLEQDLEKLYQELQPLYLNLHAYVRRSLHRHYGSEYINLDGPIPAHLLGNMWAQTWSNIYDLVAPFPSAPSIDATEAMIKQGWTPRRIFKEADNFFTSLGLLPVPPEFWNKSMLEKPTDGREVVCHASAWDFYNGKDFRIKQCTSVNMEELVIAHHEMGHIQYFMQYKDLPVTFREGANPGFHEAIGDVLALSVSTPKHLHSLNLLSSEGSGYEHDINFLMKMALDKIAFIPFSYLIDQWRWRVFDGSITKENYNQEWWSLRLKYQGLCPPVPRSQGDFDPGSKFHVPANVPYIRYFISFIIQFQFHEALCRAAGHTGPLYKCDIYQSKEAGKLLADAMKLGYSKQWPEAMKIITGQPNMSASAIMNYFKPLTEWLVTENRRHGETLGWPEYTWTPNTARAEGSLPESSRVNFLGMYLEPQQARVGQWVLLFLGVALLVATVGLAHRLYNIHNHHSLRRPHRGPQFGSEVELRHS
As to the kind of experiment: In vivo inhibitory activity against Angiotensin I converting enzyme was evaluated in renal hypertensive rats. Type of assay: organism-based. As to conditions: read-out: I50.
Turning to `O=C(CCS)N1CCCC1P(=O)(O)O` (centres undefined), the IC50 was found to be 1.7 µM.
With `C[C@@H](CS)C(=O)N1CCC[C@H]1c1nn[nH]n1` the figure was 0.26 µM.
Next, `C[C@@H](CS)C(=O)N1CCC[C@H]1C(=O)NO`: 0.022 µM.
Turning to `O=C(O)[C@@H]1CCCN1C(=O)CCS`, the IC50 is 0.2 µM.
